From US8575203B2, “Chemical compounds” (Boehringer Ingelheim International GmbH, priority 2010, dated 2013)

Target: Recombinant human PDK1 enzyme (aa 52-556) (Homo sapiens (Human), UniProt O15530)
Assay: PDK1 kinase assay
Format: biochemical
Settings: in vitro kinase assay, His6-PDK1 (aa 52-556), PDKtide, P33-ATP
Procedure: The activity of the compounds according to the invention on the kinase PDK1 which inhibits the signal transduction pathway is determined in an in vitro kinase assay with recombinantly prepared protein:
Recombinant human PDK1 enzyme (aa 52-556) linked at its N-terminal end to His6 is isolated from baculovirus-infected insect cells. Purified enzyme may be obtained for example from the University of Dundee, Scotland. The following components are combined in a well of a 96-well round-based dish (Greiner bio-one, No. 650101): • 15 μL of compound to be tested in varying concentrations (e.g. starting at 10 μM, and diluted in steps of 1:5) in APT buffer (50 mM Tris/Cl pH 7.5; 0.05% β-mercaptoethanol; 10 mM Mg-acetate; 0.0166% Tween 20; 3.33% DMSO) • 15 μL His6-PDK1 (aa 52-556) 3.33 ng/well) and PDKtide ([…]), synthesised by Pepceuticals Limited, Nottingham, United Kingdom; 25 μM final concentration); His6-PDK1 and PDKtide are together diluted accordingly in assay buffer (50 mM tris pH 7.5, 0.05% β-mercaptoethanol, 10 mM Mg-acetate); PDKtide is present in this mixture as an 83.3 μM solution. These 30 μl are routinely incubated for 30 min at RT. • 20 μL ATP solution (25 μM ATP with 1.0 μCi/well gamma-P33-ATP). The final concentration of Tween 20 is 0.005%.
The reaction is started by adding the ATP solution and the mixture is incubated for 90 min at RT. At the start of the reaction the dishes are shaken gently. The reaction is stopped by the addition of 50 μL/well of 500 mM phosphoric acid (H3PO4) and incubated for about 20 min at RT. The precipitate is transferred by harvesting onto filter plates (96-well microtitre filter plate: UniFilter GF/C; Perkin Elmer; No. 6005174), then washed 6 times with 50 mM H3PO4 and dried at 60° C. Then the plate is stuck down with sealing tape, 25 μL/well of scintillation solution (Microscint 0; Perkin Elmer; No. 6013611) are added and the amount of P33 precipitated is measured using the Wallac Betacounter. The measured data are evaluated using Graphpad Prism software.

Chain of Recombinant human PDK1 enzyme (aa 52-556) (O15530 52-556): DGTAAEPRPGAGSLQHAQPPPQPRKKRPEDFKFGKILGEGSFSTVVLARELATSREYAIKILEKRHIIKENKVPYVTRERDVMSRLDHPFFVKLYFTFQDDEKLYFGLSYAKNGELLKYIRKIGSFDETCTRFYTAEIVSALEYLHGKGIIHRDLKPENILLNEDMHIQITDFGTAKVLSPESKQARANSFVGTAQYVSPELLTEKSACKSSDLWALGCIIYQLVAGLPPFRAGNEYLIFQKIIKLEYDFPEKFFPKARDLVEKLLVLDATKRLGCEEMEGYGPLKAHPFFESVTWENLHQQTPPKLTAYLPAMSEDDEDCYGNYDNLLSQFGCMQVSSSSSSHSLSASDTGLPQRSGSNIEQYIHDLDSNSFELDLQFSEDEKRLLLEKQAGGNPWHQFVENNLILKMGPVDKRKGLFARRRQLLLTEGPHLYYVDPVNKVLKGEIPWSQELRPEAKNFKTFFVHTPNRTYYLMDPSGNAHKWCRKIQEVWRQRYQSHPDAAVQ

| SMILES | IC50 |
| --- | --- |
| O=C(NCC#Cc1ccc2ncc(C(=O)N3CCNCC3)cc2c1)c1cncn(Cc2ccc(F)c(F)c2)c1=O [II-83] | 286 nM |
| O=C(NCC#Cc1ccc2nccc(OC[C@@H]3CCCNC3)c2c1)c1cccn(Cc2ccc(F)c(F)c2)c1=O [I-125.23] | 4 nM |
| O=C(NCC#Cc1ccc2nccc(OC3CCNCC3)c2c1)c1cccn(Cc2ccc(F)c(F)c2)c1=O [I-114] | 23 nM |
| CN(CCCO)c1ncnc2ccc(C#CCNC(=O)c3cccn(Cc4ccc(F)c(F)c4)c3=O)cc12 [II-34] | 59 nM |
| CNc1ncnc2ccc(C#CCNC(=O)c3cc(NCCN(C)C)nn(Cc4ccc(F)c(F)c4)c3=O)cc12 [II-57] | 357 nM |
| COc1ccc(CCNc2ncnc3ccc(C#CCNC(=O)c4cncn(Cc5ccc(F)c(F)c5)c4=O)cc23)cc1OC [II-8] | 91 nM |
| O=C(NCC#Cc1ccc2ncc(OC3CCNCC3)cc2c1)c1cncn(Cc2ccc(F)c(F)c2)c1=O [I-87] | 23 nM |
| CN(C)CC(C)(C)COc1ccnc2ccc(C#CCNC(=O)c3cncn(Cc4ccc(F)c(F)c4)c3=O)cc12 [I-102] | 13 nM |
| CN1CCC(Oc2ccnc3ccc(C#CCNC(=O)c4cncn(Cc5ccc(F)c(F)c5)c4=O)cc23)CC1 [I-111] | 29 nM |
| CC(C)Nc1c([N+](=O)[O-])cnc2ccc(C#CCNC(=O)c3cncn(Cc4ccc(F)c(F)c4)c3=O)cc12 [I-128] | 116 nM |
| O=C(NCC#Cc1ccc2nccc(OC3CCNCC3)c2c1)c1cncn(Cc2ccc(F)c(F)c2)c1=O [I-113] | 15 nM |
| CN1CCC(Nc2cnc3ccc(C#CCNC(=O)c4cccn([C@@H](CO)c5ccc(F)c(F)c5)c4=O)cc3n2)CC1 [I-41] | 3 nM |
| COCCCNc1ncnc2ccc(C#CCNC(=O)c3cncn(Cc4ccc(F)c(F)c4)c3=O)cc12 [II-14] | 158 nM |
| CCN1CCC(Nc2cnc3ccc(C#CCNC(=O)c4cncn(Cc5ccc(F)c(F)c5)c4=O)cc3c2)CC1 [I-71] | 4 nM |
| CNc1c(C#N)cnc2ccc(C#CCNC(=O)c3cccn(Cc4ccc(F)c(F)c4)c3=O)cc12 [II-105] | 46 nM |
| O=C(NCC#Cc1ccc2ncc(N[C@H]3CC[C@H](N4CCOCC4)CC3)nc2c1)c1ccnn(Cc2ccc(F)c(F)c2)c1=O [I-60] | 7 nM |
| O=C(NCC#Cc1ccc2ncc(NC3CCN(CCO)CC3)nc2c1)c1cncn(Cc2ccc(F)c(F)c2)c1=O [I-9] | 3 nM |

| SMILES | IC50 |
| --- | --- |
| CC(C)N(C)c1c(C#N)cnc2ccc(C#CCNC(=O)c3cccn(Cc4ccc(F)c(F)c4)c3=O)cc12 [II-101] | 148 nM |
| CN1CCC(Oc2cnc3ccc(C#CCNC(=O)c4cncn(Cc5ccc(F)c(F)c5)c4=O)cc3n2)CC1 [I-38] | 56 nM |
| O=C(NCC#Cc1ccc2ncnc(NCC(O)CO)c2c1)c1cccn(Cc2ccc(F)c(F)c2)c1=O (stereo not shown) [II-37] | 44 nM |
| CN(C)CCCNc1cnc2ccc(C#CCNC(=O)c3cncn(Cc4ccc(F)c(F)c4)c3=O)cc2n1 [I-10] | 11 nM |
| Cc1c(C#CCNC(=O)c2cncn(Cc3ccc(F)c(F)c3)c2=O)ccc2ncc(C(=O)O)cc12 [I-83] | 62 nM |
| O=C(NCC#Cc1ccc2ncnc(N3CCCC3)c2c1)c1cccn(Cc2ccc(F)c(F)c2)c1=O [II-27] | 52 nM |
| CC1(O)CCN(c2ncnc3ccc(C#CCNC(=O)c4cccn(Cc5ccc(F)c(F)c5)c4=O)cc23)CC1 [II-41] | 61 nM |
| CN1CCC(Nc2cnc3ccc(C#CCNC(=O)c4cncn(Cc5ccc(F)c(F)c5)c4=O)cc3c2)CC1 [I-70] | 1 nM |
| O=C(NCC#Cc1ccc2nccc(OCC3CCCCO3)c2c1)c1cccn(Cc2ccc(F)c(F)c2)c1=O (stereo not shown) [I-109] | 166 nM |
| CONc1ncnc2ccc(C#CCNC(=O)c3cncn(Cc4ccc(F)c(F)c4)c3=O)cc12 [II-61] | 57 nM |
| CCN(CC)c1ncnc2ccc(C#CCNC(=O)c3cccn([C@@H](C)c4ccccc4)c3=O)cc12 [II-55] | 60 nM |
| CCN(CC)CCCOc1ccnc2ccc(C#CCNC(=O)c3cncn(Cc4ccc(F)c(F)c4)c3=O)cc12 [I-125.13] | 6 nM |
| CCN1CC[C@H](Nc2cnc3ccc(C#CCNC(=O)c4cncn(Cc5ccc(F)c(F)c5)c4=O)cc3n2)[C@H](F)C1 [I-47] | 4 nM |
| CN1CCC(Nc2cnc3ccc(C#CCNC(=O)c4cccn(Cc5ccc(F)c(F)c5)c4=O)cc3n2)CC1 [I-31] | 5 nM |
| O=C(NCC#Cc1ccc2ncc(NC3CCN(C4COC4)CC3)nc2c1)c1cncn(Cc2ccc(F)c(F)c2)c1=O [I-56] | 3 nM |
| NC(=O)CNc1ncnc2ccc(C#CCNC(=O)c3cccn(Cc4ccc(F)c(F)c4)c3=O)cc12 [II-35] | 59 nM |
| CC(C)Nc1c(C#N)cnc2ccc(C#CCNC(=O)c3cccn(Cc4ccc(F)c(F)c4)c3=O)cc12 [II-104] | 147 nM |

More lines, in order of falling IC50, values ahead:

| IC50 | SMILES |
| --- | --- |
| 654 nM | O=C(NCC#Cc1ccc2ncc(CC3CCNCC3)nc2c1)c1cncn(Cc2ccc(F)c(F)c2)c1=O [I-66] |
| 607 nM | N#Cc1cnc2ccc(C#CCNC(=O)c3cccn(Cc4ccc(F)c(F)c4)c3=O)cc2c1NCCc1ccccc1 [II-96] |
| 500 nM | CN(c1ncnc2ccc(C#CCNC(=O)c3cncn(Cc4ccc(F)c(F)c4)c3=O)cc12)C(C)(C)C [II-19] |
| 405 nM | CN1CCN(C(=O)c2cnc3ccc(C#CCNC(=O)c4cncn(Cc5ccc(F)c(F)c5)c4=O)cc3c2)CC1 [II-84] |
| 161 nM | O=C(NCC#Cc1ccc2ncnc(NCCc3cccs3)c2c1)c1cncn(Cc2ccc(F)c(F)c2)c1=O [II-12] |
| 117 nM | CN1CCN(c2cnc3ccc(C#CCNC(=O)c4cncn(Cc5ccc(F)c(F)c5)c4=O)cc3n2)CC1 [I-24] |
| 98 nM | CNc1c([N+](=O)[O-])cnc2ccc(C#CCNC(=O)c3cncn(Cc4ccc(F)c(F)c4)c3=O)cc12 [I-127] |
| 98 nM | Cc1ncnc2ccc(C#CCNC(=O)c3cncn(Cc4ccc(F)c(F)c4)c3=O)cc12 [II-66] |
| 94 nM | CCOc1ncnc2ccc(C#CCNC(=O)c3cncn(Cc4ccc(F)c(F)c4)c3=O)cc12 [I-7] |
| 88 nM | CN(C)CCN(C)c1cnc2ccc(C#CCNC(=O)c3cncn(Cc4ccc(F)c(F)c4)c3=O)cc2n1 [I-11] |
| 86 nM | O=C(NCC#Cc1ccc2nccc(C3=CCNCC3)c2c1)c1cncn(Cc2ccc(F)c(F)c2)c1=O [II-90] |
| 63 nM | COc1cccc(CN(C)c2ncnc3ccc(C#CCNC(=O)c4cccn(Cc5ccc(F)c(F)c5)c4=O)cc23)c1 [II-45] |
| 35 nM | O=C(NCC#Cc1ccc2nccc(-c3cn[nH]c3)c2c1)c1cncn(Cc2ccc(F)c(F)c2)c1=O [II-89] |
| 21 nM | CC(C)Nc1cnc2ccc(C#CCNC(=O)c3cncn(Cc4ccc(F)c(F)c4)c3=O)cc2n1 [I-35] |
| 21 nM | CC(=O)N[C@@H]1CCN(c2ncnc3ccc(C#CCNC(=O)c4cccn(Cc5ccc(F)c(F)c5)c4=O)cc23)C1 [II-30] |
| 19 nM | O=C(NCC#Cc1ccc2nccc(-c3cc[nH]c3)c2c1)c1cncn(Cc2ccc(F)c(F)c2)c1=O [II-88] |
| 15 nM | CN(c1ccccc1)c1ncnc2ccc(C#CCNC(=O)c3cncn(Cc4ccc(F)c(F)c4)c3=O)cc12 [II-48] |
| 14 nM | CN1CCN(CCCOc2ccnc3ccc(C#CCNC(=O)c4cncn(Cc5ccc(F)c(F)c5)c4=O)cc23)CC1 [I-100] |
| 13 nM | CN(c1ncnc2ccc(C#CCNC(=O)c3cncn(Cc4ccc(F)c(F)c4)c3=O)cc12)C1CC1 [II-20] |
| 12 nM | CN1CCC(NC(=O)c2cnc3ccc(C#CCNC(=O)c4cncn(Cc5ccc(F)c(F)c5)c4=O)cc3c2)CC1 [II-74] |
| 8 nM | CN1CCC(Nc2cnc3ccc(C#CCNC(=O)c4cccn([C@H](CO)c5ccccc5)c4=O)cc3n2)CC1 [I-32] |
| 6 nM | COc1ccc(CN(C)c2ncnc3ccc(C#CCNC(=O)c4cccn(Cc5ccc(F)c(F)c5)c4=O)cc23)cc1 [II-52] |
| 4 nM | COCCN1CCC(Nc2cnc3ccc(C#CCNC(=O)c4cncn(Cc5ccc(F)c(F)c5)c4=O)cc3c2)CC1 [I-73] |
| 4 nM | COCCN1CCC(Nc2cnc3ccc(C#CCNC(=O)c4cccn([C@@H](C)c5ccc(F)c(F)c5)c4=O)cc3n2)CC1 [I-52] |
| 3 nM | O=C(NCC#Cc1ccc2nccc(OCC3CCNC3)c2c1)c1cncn(Cc2ccc(F)c(F)c2)c1=O (stereo not shown) [I-122] |
| 3 nM | O=C(NCC#Cc1ccc2ncc(N[C@H]3CC[C@H](N4CCN(CC5CC5)CC4)CC3)nc2c1)c1cncn(Cc2ccc(F)c(F)c2)c1=O [I-42] |
| 3 nM | CC(c1cc(F)c(F)c(F)c1)n1cccc(C(=O)NCC#Cc2ccc3nccc(OC[C@@H]4CCN(C)C4)c3c2)c1=O (stereo partly shown) [I-125.1] |
| 2 nM | CN(C)CCCOc1ccnc2ccc(C#CCNC(=O)c3cccn(C(CO)c4ccc(F)c(F)c4)c3=O)cc12 (stereo not shown) [I-125] |
| 2 nM | O=C(NCC#Cc1ccc2nccc(OCC3CCCNC3)c2c1)c1cncn(Cc2ccc(F)c(F)c2)c1=O (stereo not shown) [I-123] |
| 2 nM | CCN1CCC(Nc2cnc3ccc(C#CCNC(=O)c4cccn(Cc5ccc(F)c(F)c5)c4=O)cc3c2)CC1 [I-72] |
